Results from patent publication US4595693A, “Method of use of 2,5-diaryl tetrahydrofurans and analogs thereof as PAF-antagonists” (Merck & Co., Inc., priority 1984, dated 1986).

Tests used:
[1] = system: PAF; assay: PAF-antagonist activity (general comparison)
[2] = system: PAF-induced degranulation; assay: Method II: inhibition of PAF-induced degranulation in rats; format: in vivo, rat; settings: oral dose of 50 mg/kg
[3] = system: PAF-induced cutaneous vascular permeability; assay: Method I: oral inhibition of PAF-induced increase of cutaneous vascular permeability; format: in vivo; settings: guinea pig, dose 50 mg/kg PO
From the text: The specific PAF-antagonistic activities are further established by two in vivo assays (Modified procedure of Humphrey et al. Lab. Investigation, 46, 422 (1982)) following the protocols described below:
Method I: Protocol for the evaluation of the oral activity of PAF antagonists or the inhibition of PAF-induced increase of vasopermeability by PAF-antagonists
I. Animal species: 5 guinea pigs (400-500 g)
II. Material: 0.5% (w/v) aqueous methylcellulose solution sodium nembutol
2% Evans Blue solution: 2 g of Evans Blue in 100 ml of pH 7.5 Tris-Buffer solution
Tris-Buffer solution: 150 mM NaCl and 10 mM Tris/ml with pH adjusted to 7.5.
1. Weigh the guinea pigs. Label them as control, T1, T2, T3 and T4.
2. Fast the animals overnight.
3. Weigh the animals again after the fasting.
4. Ground and suspend a PAF antagonist of formula (I) with intensive sonication in 3 ml of 0.5% aqueous methylcellulose solution.
5. […]
8. […] In the meantime, shave the backs of the guinea pigs and get ready for the PAF injection. […]
15. Measure the absorbance of each supernatant from Step (14) ("skin sample") as well as the plasma extract from Step (13) ("plasma sample") at 620 nm with a Cary 210 spectrophotometer (Varian, Palo Alto, CA). […]

[4] = biological target: T1, PAF specific receptor binding site on rabbit platelet plasma membranes (Oryctolagus cuniculus, UniProt G1TEI7); assay: Inhibition of 3H-PAF binding to rabbit platelet plasma membrane; settings: 1 h
T1 construct: 100 μg of the platelet plasma membrane suspension; from tissue; host or cells: rabbit platelet plasma membranes
T1 sequence (G1TEI7 1-342): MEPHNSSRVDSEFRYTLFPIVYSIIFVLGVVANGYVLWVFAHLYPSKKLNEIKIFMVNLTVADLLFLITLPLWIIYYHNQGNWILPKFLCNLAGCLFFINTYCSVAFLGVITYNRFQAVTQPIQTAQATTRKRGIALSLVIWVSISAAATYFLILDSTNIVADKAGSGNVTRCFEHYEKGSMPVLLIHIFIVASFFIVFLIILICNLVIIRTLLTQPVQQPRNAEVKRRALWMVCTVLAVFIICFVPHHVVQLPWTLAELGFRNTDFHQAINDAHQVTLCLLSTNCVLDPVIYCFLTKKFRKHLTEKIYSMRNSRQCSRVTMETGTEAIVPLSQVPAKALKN
Description: The inhibition of H^3 -PAF binding to the rabbit platelet plasma membrane by a PAF-antagonist of Formula (I) was determined by a method employing isotopic labeling and filtration techniques. Generally, a series of Tris-buffered solutions of the selected antagonist at predetermined concentrations were prepared. […] After adding into a set of test tubes each with 100 μg of the platelet plasma membrane suspension and one of the Tris-buffer solutions described above, the resulting mixture in each test tube was incubated at 0° C. for about one hour or until the reaction was complete. Two control samples, one of which (C1) contains all the ingredients described above except the antagonist and the other (C2) contains C1 plus a 1000-fold excess of unlabelled PAF, were also prepared and incubated simultaneously with the test samples. After the incubation was completed, the contents of each test tube were filtered under vacuo through a Whatman GF/C fiberglass filter and the residue washed rapidly several times with a total of 20 ml cold (0°-5° C.) Tris-buffer solution. Each washed residue was then suspended in 10 ml scintillation solution (Aquasol 2, New England Nuclear, Conn.) and the radioactivity was counted in a Packard Tri-Carb 460CD Liquid Scintillation System. Defining the counts from a test sample as "Total binding with antagonist"; the counts from the control sample C1, as "Total binding C1 "; and the counts from the control sample C2 as "non-specific binding C2 ", the percent inhibition of each test antagonist can be determined by the following equation: [formula]

Compound | inhibition at 1 µM [4] | inhibition at 10 µM [4] | inhibition at 5 µM [4] | further results
COc1ccc([C@H]2O[C@@H](c3ccc(OC)c(OC)c3)[C@@H](C)[C@H]2C)cc1OC [R=CH3; R1=CH3; Ar=3,4-dimethoxyphenyl; Ar1=Same as Ar; isomer (4), All cis-3,4-Dimethyl-2,5-bis(3,4-dimethoxyphenyl)-tetrahydrofuran] |  |  |  | PAF-antagonist activity, rank in words [1]: most active PAF-antagonist; inhibition of PAF-induced degranulation [2]: 49%; % inhibition [3]: 30%
COc1ccc([C@H]2O[C@@H](c3ccccc3)[C@@H](C)[C@H]2C)cc1OC (relative stereo) [R=CH3; R1=CH3; Ar=3,4-dimethoxyphenyl; Ar1=phenyl; isomer (4)] | 9% | 100% |  | 
COc1ccc([C@H]2O[C@@H](c3ccc(OC)c(OC)c3)[C@@H](C)[C@H]2C(=O)O)cc1OC (relative stereo) [R=COOH; R1=CH3; Ar=3,4-dimethoxyphenyl; Ar1=Same as Ar; isomer (4)] | 18% |  |  | 
COc1cc([C@H]2O[C@@H](c3cc(OC)c(OC)c(OC)c3)[C@@H](C)[C@H]2C)cc(OC)c1OC [R=CH3; R1=CH3; Ar=3,4,5-trimethoxyphenyl; Ar1=Same as Ar; isomer (4)] | 12% |  | 48% | inhibition at 20 µM [4]: 68%
COc1ccc([C@H]2O[C@@H](c3ccc(OC)cc3)[C@H](C)[C@H]2C)cc1 (relative stereo) [R=CH3; R1=CH3; Ar=4-methoxyphenyl; Ar1=Same as Ar; isomer (1)] |  | 47% |  | 
COC(=O)[C@@H]1[C@@H](C(=O)OC)[C@H](c2cc(OC)c(O)cc2Cl)O[C@@H]1c1cc(OC)c(O)cc1Cl (relative stereo) | 15% |  |  | 
COc1ccc(OC)c(C2OC(c3cc(OC)ccc3OC)C(C)C2C)c1 (stereo not shown) |  | 52% |  | 
COC(=O)[C@@H]1[C@H](C)[C@H](c2ccc(OC)c(OC)c2)O[C@@H]1c1ccc(OC)c(OC)c1 (relative stereo) [R=CO2CH3; R1=CH3; Ar=3,4-dimethoxyphenyl; Ar1=Same as Ar; isomer (4)] | 33% |  |  | 
COc1cc([C@@H]2O[C@@H](c3cc(OC)c(OC)c(OC)c3)[C@H](C)[C@H]2C)cc(OC)c1OC (relative stereo) [R=CH3; R1=CH3; Ar=3,4,5-trimethoxyphenyl; Ar1=Same as Ar; isomer (2)] | 2% |  | 39% | inhibition at 20 µM [4]: 63%
COc1cccc([C@H]2O[C@@H](c3ccccc3)[C@@H](C)[C@H]2C)c1 (relative stereo) [R=CH3; R1=CH3; Ar=3-methoxyphenyl; Ar1=phenyl; isomer (4)] | 28% | 49% |  | 
COc1cc([C@H]2O[C@@H](c3cc(OC)c(OC)c(OC)c3)[C@H](C)[C@H]2C)cc(OC)c1OC (relative stereo) [R=CH3; R1=CH3; Ar=3,4,5-trimethoxyphenyl; Ar1=Same as Ar; isomer (1)] |  |  | 61% | inhibition at 0.5 µM ([4]; dose 0.5 (μm)): 42%
C[C@@H]1[C@@H](C)[C@H](c2ccccc2)O[C@@H]1c1ccccc1 (relative stereo) [R=CH3; R1=CH3; Ar=phenyl; Ar1=phenyl; isomer (1)] |  |  | 13% | 
C[C@@H]1[C@H](C)[C@H](c2ccccc2)O[C@@H]1c1ccc2c(c1)OCO2 (relative stereo) [R=CH3; R1=CH3; Ar=3,4-methylenedioxyphenyl; Ar1=phenyl; isomer (4)] | 11% | 45% |  | 
COC[C@H]1[C@@H](C)[C@@H](c2ccc(OC)c(OC)c2)O[C@H]1c1ccc(OC)c(OC)c1 (relative stereo) [R=CH3; R1=CH2OCH3; Ar=3,4-dimethoxyphenyl; Ar1=Same as Ar; isomer (4)] |  |  | 62% | 
CCOC(=O)[C@@H]1[C@@H](C(=O)OCC)[C@H](c2ccc(OC)c(OC)c2)O[C@@H]1c1ccc(OC)c(OC)c1 (relative stereo) [R=CO2Et; R1=CO2Et; Ar=3,4-dimethoxyphenyl; Ar1=Same as Ar; isomer (1)] | 63% |  |  | 
